Patent US11753407B2, “Compounds for treating spinal muscular atrophy” (PTC Therapeutics, Inc., priority 2012, dated 2023)

Key:
[1] = test system: SMN2 minigene mRNA (SMN2-A minigene) in HEK293H cells; experiment: SMN2 minigene mRNA splicing RT-qPCR assay in cultured cells; type: cell-based, human; conditions: Homo sapiens, HEK293-H; concentration increasing full length SMN2 mRNA 1.5-fold relative to vehicle-treated cells; HEK293H cells with SMN2-A minigene, 24 hours, 7-point concentration data; read-out: EC1.5x for production of full length SMN2 mRNA
How it was run: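 Stable SMN2-A minigene HEK293H; cpd 7-pt 3.16-fold series, 200× in DMSO, 24 h, 37 °C, n=2. Lysates → multiplex RT-qPCR (minigene FL + GAPDH), efficiency-corrected ΔΔCt vs vehicle. EC1.5× = 1.5-fold FL mRNA gain.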

[2] = test system: Smn protein in SMA patient fibroblast cells (GM03813); experiment: Smn protein assay in cultured cells (SMN HTRF); type: cell-based, human; conditions: SMA patient fibroblast cells, 48 hours; for EC1.5x for Smn protein expression: 7-point concentration curve, SMN HTRF, concentration producing 1.5 times Smn protein vs DMSO vehicle control; for maximum fold (Fold) increase of Smn protein: 7-point concentration data, fold relative to vehicle control
How it was run: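 Fibroblasts, SMA patient; 5,000 cells/well; 7-pt curve, 3.16-fold serial dilution; 48 h, 37 °C, 5% CO2; RIPA lysis 1 h RT; anti-SMN d2 + kryptate overnight RT; HTRF 665/620 nm; fold vs DMSO; EC1.5×, max fold.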

Cc1nc2ccc(-c3cc(=O)n4cc(N5CCC(N)C5)ccc4n3)cc2s1 (stereo not drawn) [Compound 382, 7-(3-aminopyrrolidin-1-yl)-2-(2-methyl-1,3-benzothiazol-6-yl)-4H-pyrido[1,2-a]pyrimidin-4-one]
EC (1.5-fold increase) [1]: < 0.1 µM | EC1.5x for Smn protein expression [2]: *** (an EC1.5× between >0.3 μM and ≤1 μM is indicated by three stars (***)) | maximum fold (Fold) increase of Smn protein [2]: **** (a fold increase between >1.5 and ≤1.65 is indicated by four stars (****)) | melting point: 196 to 200 °C

Cc1nc2ccc(-c3cc(=O)n4cc(N5CC[C@@H](N(C)C)C5)ccc4n3)cc2s1 [Compound 383, 7-[(3R)-3-(dimethylamino)pyrrolidin-1-yl]-2-(2-methyl-1,3-benzothiazol-6-yl)-4H-pyrido[1,2-a]pyrimidin-4-one]
EC (1.5-fold increase) [1]: 0.3 to 1 µM | maximum fold (Fold) increase of Smn protein [2]: ** (a fold increase between >1.2 and ≤1.35 is indicated by two stars (**)) | melting point: 235 to 240 °C

Cc1nc2ccc(-c3cc(=O)n4cc(C5=CCNCC5)ccc4n3)cc2s1 [Compound 384, 2-(2-methyl-1,3-benzothiazol-6-yl)-7-(1,2,3,6-tetrahydropyridin-4-yl)-4H-pyrido[1,2-a]pyrimidin-4-one]
EC (1.5-fold increase) [1]: < 0.1 µM | EC1.5x for Smn protein expression [2]: **** (an EC1.5x≤0.3 μM is indicated by four stars (****)) | maximum fold (Fold) increase of Smn protein [2]: ***** (a fold increase >1.65 is indicated by five stars (*****)) | melting point: 124 to 126 °C

COCCN1CCN(c2ccc3nc(-c4cc(F)c5nc(C)cn5c4)cc(=O)n3c2)CC1 [Compound 385, 2-(8-fluoro-2-methylimidazo[1,2-a]pyridin-6-yl)-7-[4-(2-methoxyethyl)piperazin-1-yl]-4H-pyrido[1,2-a]pyrimidin-4-one]
EC (1.5-fold increase) [1]: < 0.1 µM | EC1.5x for Smn protein expression [2]: *** (an EC1.5× between >0.3 μM and ≤1 μM is indicated by three stars (***)) | maximum fold (Fold) increase of Smn protein [2]: ***** (a fold increase >1.65 is indicated by five stars (*****)) | melting point: 258 to 262 °C

COc1ccc(-c2cc(=O)n3cc(C4=CCN(C5COC5)CC4)cc(C)c3n2)cc1OC [Compound 386, 2-(3,4-dimethoxyphenyl)-9-methyl-7-[1-(oxetan-3-yl)-1,2,3,6-tetrahydropyridin-4-yl]-4H-pyrido[1,2-a]pyrimidin-4-one]
EC (1.5-fold increase) [1]: 0.3 to 1 µM | maximum fold (Fold) increase of Smn protein [2]: * (A maximum fold increase of ≤1.2 is indicated by one star (*)) | melting point: 180 to 195 °C

COc1ccc(-c2cc(=O)n3cc(C4=CCN(C(C)C)CC4)cc(C)c3n2)cc1OC [Compound 387, 2-(3,4-dimethoxyphenyl)-9-methyl-7-[1-(propan-2-yl)-1,2,3,6-tetrahydropyridin-4-yl]-4H-pyrido[1,2-a]pyrimidin-4-one]
EC (1.5-fold increase) [1]: 0.3 to 1 µM | maximum fold (Fold) increase of Smn protein [2]: ** (a fold increase between >1.2 and ≤1.35 is indicated by two stars (**)) | melting point: 153 to 163 °C

COc1ccc(-c2cc(=O)n3cc(C4=CCNCC4)c(C)cc3n2)cc1OC [Compound 389, 2-(3,4-dimethoxyphenyl)-8-methyl-7-(1,2,3,6-tetrahydropyridin-4-yl)-4H-pyrido[1,2-a]pyrimidin-4-one]
EC (1.5-fold increase) [1]: 1 to 3 µM | maximum fold (Fold) increase of Smn protein [2]: ** (a fold increase between >1.2 and ≤1.35 is indicated by two stars (**)) | melting point: 175 °C (dec.)

COc1ccc(-c2cc(=O)n3cc(C4=CCN(C5CC5)CC4)cc(C)c3n2)cc1OC [Compound 390, 7-(1-cyclopropyl-1,2,3,6-tetrahydropyridin-4-yl)-2-(3,4-dimethoxyphenyl)-9-methyl-4H-pyrido[1,2-a]pyrimidin-4-one]
EC (1.5-fold increase) [1]: 0.3 to 1 µM | maximum fold (Fold) increase of Smn protein [2]: * (A maximum fold increase of ≤1.2 is indicated by one star (*)) | melting point: 180 to 189 °C

COc1ccc(-c2cc(=O)n3cc(C4=CCN(C)CC4)c(C)cc3n2)cc1OC [Compound 391, 2-(3,4-dimethoxyphenyl)-8-methyl-7-(1-methyl-1,2,3,6-tetrahydropyridin-4-yl)-4H-pyrido[1,2-a]pyrimidin-4-one]
EC (1.5-fold increase) [1]: 1 to 3 µM | maximum fold (Fold) increase of Smn protein [2]: * (A maximum fold increase of ≤1.2 is indicated by one star (*)) | melting point: 174 to 178 °C

Cc1nc2ccc(-c3cc(=O)n4cc(C5=CCN(C)CC5)ccc4n3)cc2s1 [Compound 392, 2-(2-methyl-1,3-benzothiazol-6-yl)-7-(1-methyl-1,2,3,6-tetrahydropyridin-4-yl)-4H-pyrido[1,2-a]pyrimidin-4-one]
EC (1.5-fold increase) [1]: 0.1 to 0.3 µM | maximum fold (Fold) increase of Smn protein [2]: *** (a fold increase between >1.35 and ≤1.5 is indicated by three stars (***)) | melting point: 170 to 172 °C

Cc1nc2ccc(-c3cc(=O)n4cc(C5=CCN(CCO)CC5)ccc4n3)cc2s1 [Compound 393, 7-[1-(2-hydroxyethyl)-1,2,3,6-tetrahydropyridin-4-yl]-2-(2-methyl-1,3-benzothiazol-6-yl)-4H-pyrido[1,2-a]pyrimidin-4-one]
EC (1.5-fold increase) [1]: < 0.1 µM | EC1.5x for Smn protein expression [2]: *** (an EC1.5× between >0.3 μM and ≤1 μM is indicated by three stars (***)) | maximum fold (Fold) increase of Smn protein [2]: *** (a fold increase between >1.35 and ≤1.5 is indicated by three stars (***)) | melting point: 178 to 180 °C

Cc1nc2ccc(-c3cc(=O)n4cc(C5=CCN(C(C)C)CC5)ccc4n3)cc2s1 [Compound 394, 2-(2-methyl-1,3-benzothiazol-6-yl)-7-[1-(propan-2-yl)-1,2,3,6-tetrahydropyridin-4-yl]-4H-pyrido[1,2-a]pyrimidin-4-one]
EC (1.5-fold increase) [1]: 0.1 to 0.3 µM | maximum fold (Fold) increase of Smn protein [2]: ** (a fold increase between >1.2 and ≤1.35 is indicated by two stars (**)) | melting point: 168 to 170 °C

Cc1nc2ccc(-c3cc(=O)n4cc(C5=CCN(C6CC6)CC5)ccc4n3)cc2s1 [Compound 395, 7-(1-cyclopropyl-1,2,3,6-tetrahydropyridin-4-yl)-2-(2-methyl-1,3-benzothiazol-6-yl)-4H-pyrido[1,2-a]pyrimidin-4-one]
EC (1.5-fold increase) [1]: 0.3 to 1 µM | maximum fold (Fold) increase of Smn protein [2]: ** (a fold increase between >1.2 and ≤1.35 is indicated by two stars (**)) | melting point: 158 to 160 °C

CCN1CC=C(c2ccc3nc(-c4ccc5nc(C)sc5c4)cc(=O)n3c2)CC1 [Compound 396, 7-(1-ethyl-1,2,3,6-tetrahydropyridin-4-yl)-2-(2-methyl-1,3-benzothiazol-6-yl)-4H-pyrido[1,2-a]pyrimidin-4-one]
EC (1.5-fold increase) [1]: 0.1 to 0.3 µM | EC1.5x for Smn protein expression [2]: *** (an EC1.5× between >0.3 μM and ≤1 μM is indicated by three stars (***)) | maximum fold (Fold) increase of Smn protein [2]: **** (a fold increase between >1.5 and ≤1.65 is indicated by four stars (****)) | melting point: 128 to 130 °C

Cc1cn2nc(-c3cc(=O)n4cc(N5CCN(C)[C@H](C)C5)ccc4n3)cc2c(C)n1 [Compound 397, 7-[(3R)-3,4-dimethylpiperazin-1-yl]-2-(4,6-dimethylpyrazolo[1,5-a]pyrazin-2-yl)-4H-pyrido[1,2-a]pyrimidin-4-one]
EC (1.5-fold increase) [1]: < 0.1 µM | EC1.5x for Smn protein expression [2]: **** (an EC1.5x≤0.3 μM is indicated by four stars (****)) | maximum fold (Fold) increase of Smn protein [2]: ***** (a fold increase >1.65 is indicated by five stars (*****)) | melting point: 247 to 249 °C

Cc1cn2nc(-c3cc(=O)n4cc(N5C[C@@H]6C[C@H]5CN6)ccc4n3)cc2c(C)n1 [Compound 399, 7-[(1S,4S)-2,5-diazabicyclo[2.2.1]hept-2-yl]-2-(4,6-dimethylpyrazolo[1,5-a]pyrazin-2-yl)-4H-pyrido[1,2-a]pyrimidin-4-one]
EC (1.5-fold increase) [1]: 0.3 to 1 µM | EC1.5x for Smn protein expression [2]: *** (an EC1.5× between >0.3 μM and ≤1 μM is indicated by three stars (***)) | maximum fold (Fold) increase of Smn protein [2]: **** (a fold increase between >1.5 and ≤1.65 is indicated by four stars (****)) | melting point: 218 to 221 °C

Cc1cn2nc(-c3cc(=O)n4cc(N5C[C@@H]6C[C@H]5CN6C)ccc4n3)cc2c(C)n1 [Compound 400, 2-(4,6-dimethylpyrazolo[1,5-a]pyrazin-2-yl)-7-[(1S,4S)-5-methyl-2,5-diazabicyclo[2.2.1]hept-2-yl]-4H-pyrido[1,2-a]pyrimidin-4-one]
EC (1.5-fold increase) [1]: 0.1 to 0.3 µM | EC1.5x for Smn protein expression [2]: *** (an EC1.5× between >0.3 μM and ≤1 μM is indicated by three stars (***)) | maximum fold (Fold) increase of Smn protein [2]: **** (a fold increase between >1.5 and ≤1.65 is indicated by four stars (****)) | melting point: 188 to 191 °C

CCN1C[C@@H]2C[C@H]1CN2c1ccc2nc(-c3cc4c(C)nc(C)cn4n3)cc(=O)n2c1 [Compound 401, 2-(4,6-dimethylpyrazolo[1,5-a]pyrazin-2-yl)-7-[(1S,4S)-5-ethyl-2,5-diazabicyclo[2.2.1]hept-2-yl]-4H-pyrido[1,2-a]pyrimidin-4-one]
EC (1.5-fold increase) [1]: 0.1 to 0.3 µM | EC1.5x for Smn protein expression [2]: *** (an EC1.5× between >0.3 μM and ≤1 μM is indicated by three stars (***)) | maximum fold (Fold) increase of Smn protein [2]: ***** (a fold increase >1.65 is indicated by five stars (*****)) | melting point: 175 to 177 °C
